Test results reported in patent US11091478B2 (Fochon Pharmaceuticals, Ltd., priority 2017, dated 2021).

Key:
RS4;11 cells = experiment: Cell proliferation assay (MTS), RS4;11 cells, 72 h; type: cell-based; settings: Homo sapiens, RS4-11, 72 h
Method in brief: (§1)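 Cells in RPMI-1640 with 10% FBS were seeded at 5000/well, left overnight at 37° C., 5% CO2, then exposed to compound at 10000 down to 1.5 nM (nine concentrations) for 72 h (RS4;11) or 120 h (DOHH2). Viability was read by MTS, 2 h, absorbance at 490/650 nm; IC50 calculated.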

DOHH2 cells = experiment: Cell proliferation assay (MTS), DOHH2 cells, 120 h; type: cell-based; settings: Homo sapiens, DOHH-2, 120 h
Method in brief: as §1

SMILES	IC50 (RS4;11 cells)	IC50 (DOHH2 cells)
CC1(C)CCC(CN2CCN(c3ccc(C(=O)NS(=O)(=O)c4cc5c(c([N+](=O)[O-])c4)N[C@@H](CCO)CS5)c(Oc4cnc5[nH]ccc5c4)c3)CC2)=C(c2ccc(Cl)cc2)C1 [Example 3-15, (S)-2-((1H-pyrrolo[2,3-b]pyridin-5-yl)oxy)-4-(4-((4′-chloro-5,5-dimethyl-3,4,5,6-tetra-hydro-[1,1′-biphenyl]-2-yl)methyl)piperazin-1-yl)-N-((3-(2-hydroxyethyl)-5-nitro-3,4-dihydro-2H-benzo[b][1,4]thiazin-7-yl)sulfonyl) benzamide]	13 nM	48 nM
COCC[C@H]1CSc2cc(S(=O)(=O)NC(=O)c3ccc(N4CCN(CC5=C(c6ccc(Cl)cc6)CC(C)(C)CC5)CC4)cc3Oc3cnc4[nH]ccc4c3)cc([N+](=O)[O-])c2N1 [Example 3-16, (S)-2-((1H-pyrrolo[2,3-b]pyridin-5-yl)oxy)-4-(4-((4′-chloro-5,5-dimethyl-3,4,5,6-tetra-hydro-[1,1′-biphenyl]-2-yl)methyl)piperazin-1-yl)-N-((3-(2-methoxyethyl)-5-nitro-3,4-dihydro-2H-benzo[b][1,4]thiazin-7-yl)sulfonyl)benzamide]	33 nM	132 nM
CS(=O)OCC[C@H]1CSc2cc(S(=O)(=O)NC(=O)c3ccc(N4CCN(CC5=C(c6ccc(Cl)cc6)CC(C)(C)CC5)CC4)cc3Oc3cnc4[nH]ccc4c3)cc([N+](=O)[O-])c2N1 (stereo partly drawn) [Example 3-17, 2-((S)-7-(N-(2-((1H-pyrrolo[2,3-b]pyridin-5-yl)oxy)-4-(4-((4′-chloro-5,5-dimethyl-3,4,5,6-tetrahydro-[1,1′-biphenyl]-2-yl)methyl)piperazin-1-yl)benzoyl)sulfamoyl)-5-nitro-3,4-dihydro-2H-benzo[b][1,4]thiazin-3-yl) ethyl methanesulfinate]	19 nM	49 nM
CC1(C)CCC(CN2CCN(c3ccc(C(=O)NS(=O)(=O)c4cc5c(c([N+](=O)[O-])c4)N[C@@H](CCS(C)(=O)=O)CS5)c(Oc4cnc5[nH]ccc5c4)c3)CC2)=C(c2ccc(Cl)cc2)C1 [Example 3-18, (S)-2-((1H-pyrrolo[2,3-b]pyridin-5-yl)oxy)-4-(4-((4′-chloro-5,5-dimethyl-3,4,5,6-tetra-hydro-[1,1′-biphenyl]-2-yl)methyl)piperazin-1-yl)-N-((3-(2-(methylsulfonyl)ethyl)-5-nitro-3,4-dihydro-2H-benzo[b][1,4]thiazin-7-yl)sulfonyl)benzamide]	20 nM	54 nM
CN1CCN(CC[C@H]2CSc3cc(S(=O)(=O)NC(=O)c4ccc(N5CCN(CC6=C(c7ccc(Cl)cc7)CC(C)(C)CC6)CC5)cc4Oc4cnc5[nH]ccc5c4)cc([N+](=O)[O-])c3N2)CC1 [Example 3-19, (S)-2-((1H-pyrrolo[2,3-b]pyridin-5-yl)oxy)-4-(4-((4′-chloro-5,5-dimethyl-3,4,5,6-tetra-hydro-[1,1′-biphenyl]-2-yl)methyl)piperazin-1-yl)-N-((3-(2-(4-methylpiperazin-1-yl)ethyl)-5-nitro-3,4-dihydro-2H-benzo[b][1,4]thiazin-7-yl)sulfonyl)benzamide]	1 nM	6 nM
CC1(C)CCC(CN2CCN(c3ccc(C(=O)NS(=O)(=O)c4cc5c(c([N+](=O)[O-])c4)N[C@@H](CCN4CCOCC4)CS5)c(Oc4cnc5[nH]ccc5c4)c3)CC2)=C(c2ccc(Cl)cc2)C1 [Example 3-20, (S)-2-((1H-pyrrolo[2,3-b]pyridin-5-yl)oxy)-4-(4-((4′-chloro-5,5-dimethyl-3,4,5,6-tetra-hydro-[1,1′-biphenyl]-2-yl)methyl)piperazin-1-yl)-N-((3-(2-morpholinoethyl)-5-nitro-3,4-dihydro-2H-benzo[b][1,4]thiazin-7-yl)sulfonyl)benzamide]	2 nM	9 nM
CN1CCN(C[C@@H]2CNc3cc(S(=O)(=O)NC(=O)c4ccc(N5CCN(CC6=C(c7ccc(Cl)cc7)CC(C)(C)CC6)CC5)cc4Oc4cnc5[nH]ccc5c4)cc([N+](=O)[O-])c3N2)CC1 [Example 4-1, (S)-2-((1H-pyrrolo[2,3-b]pyridin-5-yl)oxy)-4-(4-((4′-chloro-5,5-dimethyl-3,4,5,6-tetrahydro-[1,1′-biphenyl]-2-yl)methyl)piperazin-1-yl)-N-((2-((4-methylpiperazin-1-yl)methyl)-8-nitro-1,2,3,4-tetrahydroquinoxalin-6-yl)sulfonyl)benzamide]	1 nM	13 nM
CC1(C)CCC(CN2CCN(c3ccc(C(=O)NS(=O)(=O)c4cc5c(c([N+](=O)[O-])c4)N[C@H](CN4CCOCC4)CN5)c(Oc4cnc5[nH]ccc5c4)c3)CC2)=C(c2ccc(Cl)cc2)C1 [Example 4-2, (S)-2-((1H-pyrrolo[2,3-b]pyridin-5-yl)oxy)-4-(4-((4′-chloro-5,5-dimethyl-3,4,5,6-tetra-hydro-[1,1′-biphenyl]-2-yl)methyl)piperazin-1-yl)-N-((2-(morpholinomethyl)-8-nitro-1,2,3,4-tetrahydroquinoxalin-6-yl)sulfonyl) benzamide]	9 nM	29 nM
CN1CCN(C[C@H]2CNc3cc(S(=O)(=O)NC(=O)c4ccc(N5CCN(CC6=C(c7ccc(Cl)cc7)CC(C)(C)CC6)CC5)cc4Oc4cnc5[nH]ccc5c4)cc([N+](=O)[O-])c3N2)CC1 [Example 4-3, (R)-2-((1H-pyrrolo[2,3-b]pyridin-5-yl)oxy)-4-(4-((4′-chloro-5,5-dimethyl-3,4,5,6-tetra-hydro-[1,1′-biphenyl]-2-yl)methyl)piperazin-1-yl)-N-((2-((4-methylpiperazin-1-yl)methyl)-8-nitro-1,2,3,4-tetrahydroquinoxalin-6-yl)sulfonyl)benzamide]	46 nM	38 nM
CC1(C)CCC(CN2CCN(c3ccc(C(=O)NS(=O)(=O)c4cc5c(c([N+](=O)[O-])c4)N[C@@H](CN4CCOCC4)CN5)c(Oc4cnc5[nH]ccc5c4)c3)CC2)=C(c2ccc(Cl)cc2)C1 [Example 4-4, (R)-2-((1H-pyrrolo[2,3-b]pyridin-5-yl)oxy)-4-(4-((4′-chloro-5,5-dimethyl-3,4,5,6-tetra-hydro-[1,1′-biphenyl]-2-yl)methyl)piperazin-1-yl)-N-((2-(morpholinomethyl)-8-nitro-1,2,3,4-tetrahydroquinoxalin-6-yl)sulfonyl) benzamide]	14 nM	28 nM
CC1(C)CCC(CN2CCN(c3ccc(C(=O)NS(=O)(=O)c4cc5c(c([N+](=O)[O-])c4)O[C@@H](CN4CCOCC4)CO5)c(Oc4cnc5[nH]ccc5c4)c3)CC2)=C(c2ccc(Cl)cc2)C1 [Example 5-1, (S)-2-((1H-pyrrolo[2,3-b]pyridin-5-yl)oxy)-4-(4-((4′-chloro-5,5-dimethyl-3,4,5,6-tetrahydro-[1,1′-biphenyl]-2-yl)methyl)piperazin-1-yl)-N-((2-(morpholinomethyl)-8-nitro-2,3-dihydrobenzo[b][1,4]dioxin-6-yl)sulfonyl)benzamide]	9 nM	17 nM
CN1CCN(C[C@H]2COc3cc(S(=O)(=O)NC(=O)c4ccc(N5CCN(CC6=C(c7ccc(Cl)cc7)CC(C)(C)CC6)CC5)cc4Oc4cnc5[nH]ccc5c4)cc([N+](=O)[O-])c3O2)CC1 [Example 5-2]	1 nM	25 nM
CC1(C)CCC(CN2CCN(c3ccc(C(=O)NS(=O)(=O)c4cc5c(c([N+](=O)[O-])c4)O[C@H](CN4CCOCC4)CO5)c(Oc4cnc5[nH]ccc5c4)c3)CC2)=C(c2ccc(Cl)cc2)C1 [Example 5-3, (R)-2-((1H-pyrrolo[2,3-b]pyridin-5-yl)oxy)-4-(4-((4′-chloro-5,5-dimethyl-3,4,5,6-tetrahydro-[1,1′-biphenyl]-2-yl)methyl)piperazin-1-yl)-N-((2-(morpholinomethyl)-8-nitro-2,3-dihydrobenzo[b][1,4]dioxin-6-yl)sulfonyl)benzamide]	4 nM	12 nM
CN1CCN(C[C@@H]2COc3cc(S(=O)(=O)NC(=O)c4ccc(N5CCN(CC6=C(c7ccc(Cl)cc7)CC(C)(C)CC6)CC5)cc4Oc4cnc5[nH]ccc5c4)cc([N+](=O)[O-])c3O2)CC1 [Example 5-4]	34 nM	13 nM
CC1(C)CCC(CN2CCN(c3ccc(C(=O)NS(=O)(=O)c4cc5c(c([N+](=O)[O-])c4)N[C@H](CN4C[C@@H]6C[C@H]4CO6)CO5)c(-n4ncc5nc6[nH]ccc6cc54)c3)CC2)=C(c2ccc(Cl)cc2)C1 [Example 6-1, N—(((R)-3-(((1S,4S)-2-oxa-5-azabicyclo[2.2.1]heptan-5-yl)methyl)-5-nitro-3,4-dihydro-2H-benzo[b][1,4]oxazin-7-yl)sulfonyl)-4-(4-((4′-chloro-5,5-dimethyl-3,4,5,6-tetrahydro-[1,1′-biphenyl]-2-yl)methyl)piperazin-1-yl)-2-(pyrazolo[4,3-b]pyrrolo[3,2-e]pyridin-1(5H)-yl)benzamide]	2 nM	73 nM
